From PubChem BioAssay AID1918998 (Molecular Pharmacology Branch, DTP, NCI, 2023)
Where “and” joins values, the source holds several entries; their conditions need not be identical. Equal values may be shown once. Values belong to the compound of their own block, whether it stands above or below them.

System: 521955-158-R2-J5-PDC complex spheroid growth
Experiment: Anticancer human tumor 521955-158-R2-J5-PDC patient-derived pancreatic carcinoma cell line growth inhibition [AhR]
Details: for viability, T/C: stronger effect = lower value
How it was run: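 Agents were dosed in half-log steps down from roughly clinical Cmax, or from 10 microM where Cmax was unknown, alone and with AhR antagonists. Read-out: percent test/control growth of tumor spheroids containing HUVEC and MSC stromal cells.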

[1] = curve of first compound, second compound 0.1 µM
[2] = curve of first compound, second compound 0.316 µM
[3] = curve of first compound, second compound 1 µM
[4] = curve of first compound, second compound 3.16 µM
[5] = curve of first compound, second compound 10 µM
[6] = second compound 0.1 µM, first compound 0.0316 µM
[7] = second compound 0.1 µM, first compound 0.1 µM
[8] = second compound 0.1 µM, first compound 0.316 µM
[9] = second compound 0.1 µM, first compound 1 µM
[10] = second compound 0.1 µM, first compound 3.16 µM
[11] = second compound 0.1 µM, first compound 10 µM
[12] = second compound 0.316 µM, first compound 0.0316 µM
[13] = second compound 0.316 µM, first compound 0.1 µM
[14] = second compound 0.316 µM, first compound 0.316 µM
[15] = second compound 0.316 µM, first compound 1 µM
[16] = second compound 0.316 µM, first compound 3.16 µM
[17] = second compound 0.316 µM, first compound 10 µM
[18] = second compound 1 µM, first compound 0.0316 µM
[19] = second compound 1 µM, first compound 0.1 µM
[20] = second compound 1 µM, first compound 0.316 µM
[21] = second compound 1 µM, first compound 1 µM
[22] = second compound 1 µM, first compound 3.16 µM
[23] = second compound 1 µM, first compound 10 µM
[24] = second compound 3.16 µM, first compound 0.0316 µM
[25] = second compound 3.16 µM, first compound 0.1 µM
[26] = second compound 3.16 µM, first compound 0.316 µM
[27] = second compound 3.16 µM, first compound 1 µM
[28] = second compound 3.16 µM, first compound 3.16 µM
[29] = second compound 3.16 µM, first compound 10 µM
[30] = second compound 10 µM, first compound 0.0316 µM
[31] = second compound 10 µM, first compound 0.1 µM
[32] = second compound 10 µM, first compound 0.316 µM
[33] = second compound 10 µM, first compound 1 µM
[34] = second compound 10 µM, first compound 3.16 µM
[35] = second compound 10 µM, first compound 10 µM
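Wherever viability, T/C is given: spheroids mix tumor cells with HUVEC endothelium and human MSC stroma; luminescence taken as viability surrogate after a week of drug exposure.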

IC50 [1]: 0.0401 µM | IC50 [2]: < 0.00949 µM | IC50 [3]: 0.0185 µM | IC50 [4]: < 0.00949 µM | IC50 [5]: 0.14 µM
SMILES: O=C(C=Cn1cnc(-c2cc(C(F)(F)F)cc(C(F)(F)F)c2)n1)NNc1cnccn1 + Cc1ccccc1N=Nc1ccc(NC(=O)c2ccnn2C)c(C)c1
viability, T/C (second compound 0.1 µM, first compound 0.00949 µM): 59% | viability, T/C (second compound 0.1 µM, first compound 0.03 µM): 50.4% | viability, T/C (second compound 0.1 µM, first compound 0.0949 µM): 41.2% | viability, T/C (second compound 0.1 µM, first compound 0.3 µM): 39.5% | viability, T/C (second compound 0.1 µM, first compound 0.949 µM): 40.2% | viability, T/C (second compound 0.1 µM, first compound 3 µM): 21.5% | viability, T/C (second compound 0.316 µM, first compound 0.00949 µM): 54.8% | viability, T/C (second compound 0.316 µM, first compound 0.03 µM): 43.1% | viability, T/C (second compound 0.316 µM, first compound 0.0949 µM): 39.3% | viability, T/C (second compound 0.316 µM, first compound 0.3 µM): 46.1% | viability, T/C (second compound 0.316 µM, first compound 0.949 µM): 40.8% | viability, T/C (second compound 0.316 µM, first compound 3 µM): 24.6% | viability, T/C (second compound 1 µM, first compound 0.00949 µM): 55.8% | viability, T/C (second compound 1 µM, first compound 0.03 µM): 42.6% | viability, T/C (second compound 1 µM, first compound 0.0949 µM): 45.1% | viability, T/C (second compound 1 µM, first compound 0.3 µM): 36.2% | viability, T/C (second compound 1 µM, first compound 0.949 µM): 38.4% | viability, T/C (second compound 1 µM, first compound 3 µM): 31.8% | viability, T/C (second compound 3.16 µM, first compound 0.00949 µM): 53.8% | viability, T/C (second compound 3.16 µM, first compound 0.03 µM): 51.4% | viability, T/C (second compound 3.16 µM, first compound 0.0949 µM): 47.6% | viability, T/C (second compound 3.16 µM, first compound 0.3 µM): 40.8% | viability, T/C (second compound 3.16 µM, first compound 0.949 µM): 50.2% | viability, T/C (second compound 3.16 µM, first compound 3 µM): 29.8% | viability, T/C (second compound 10 µM, first compound 0.00949 µM): 91% | viability, T/C (second compound 10 µM, first compound 0.03 µM): 66.2% | viability, T/C (second compound 10 µM, first compound 0.0949 µM): 47.6% | viability, T/C (second compound 10 µM, first compound 0.3 µM): 53.4% | viability, T/C (second compound 10 µM, first compound 0.949 µM): 38.2% | viability, T/C (second compound 10 µM, first compound 3 µM): 32.9%

IC50 [1]: 4.62 µM | IC50 [2]: 4.89 µM | IC50 [3]: 3.6 µM | IC50 [4]: 5.85 µM | IC50 [5]: 4.59 µM
SMILES: O=C(C=Cc1cccc(S(=O)(=O)Nc2ccccc2)c1)NO + CC(CO)NC(=O)c1cc(-c2ccc(Cl)cc2)nn(-c2cnn(C)c2)c1=O
viability, T/C [6]: 108% | viability, T/C [7]: 107% | viability, T/C [8]: 122% | viability, T/C [9]: 93.2% | viability, T/C [10]: 58.3% | viability, T/C [11]: 35.5% | viability, T/C [12]: 114% | viability, T/C [13]: 135% | viability, T/C [14]: 131% | viability, T/C [15]: 91.2% | viability, T/C [16]: 62.6% | viability, T/C [17]: 35% | viability, T/C [18]: 131% | viability, T/C [19]: 126% | viability, T/C [20]: 120% | viability, T/C [21]: 92.9% | viability, T/C [22]: 53.2% | viability, T/C [23]: 26.5% | viability, T/C [24]: 117% | viability, T/C [25]: 101% | viability, T/C [26]: 114% | viability, T/C [27]: 98.1% | viability, T/C [28]: 67.3% | viability, T/C [29]: 35.1% | viability, T/C [30]: 94.1% | viability, T/C [31]: 90.6% | viability, T/C [32]: 82.8% | viability, T/C [33]: 86.2% | viability, T/C [34]: 61.4% | viability, T/C [35]: 25.1%

IC50 [1]: 0.755 µM | IC50 [2]: 0.668 µM | IC50 [3]: 1.01 µM | IC50 [4]: 0.88 µM | IC50 [5]: 1.58 µM
SMILES: COc1cc(C2c3cc4c(cc3C(OC3OC5COC(C)OC5C(O)C3O)C3COC(=O)C23)OCO4)cc(OC)c1O (stereo not drawn) + Cc1ccccc1N=Nc1ccc(NC(=O)c2ccnn2C)c(C)c1
viability, T/C [6]: 99.3% | viability, T/C [7]: 78.2% | viability, T/C [8]: 81.2% | viability, T/C [9]: 39% | viability, T/C [10]: 26% | viability, T/C [11]: 17.6% | viability, T/C [12]: 83.6% | viability, T/C [13]: 108% | viability, T/C [14]: 83.4% | viability, T/C [15]: 31.9% | viability, T/C [16]: 23.9% | viability, T/C [17]: 20% | viability, T/C [18]: 131% | viability, T/C [19]: 97.3% | viability, T/C [20]: 80% | viability, T/C [21]: 49% | viability, T/C [22]: 22.8% | viability, T/C [23]: 18.4% | viability, T/C [24]: 139% | viability, T/C [25]: 118% | viability, T/C [26]: 104% | viability, T/C [27]: 40.6% | viability, T/C [28]: 27.3% | viability, T/C [29]: 17.9% | viability, T/C [30]: 131% | viability, T/C [31]: 140% | viability, T/C [32]: 112% | viability, T/C [33]: 59.9% | viability, T/C [34]: 38.5% | viability, T/C [35]: 22.9%

IC50 (curve of compound): 5.15 µM and 5.47 µM and 3.26 µM
SMILES: Nc1ccccc1NC(=O)c1ccc(CNC(=O)OCc2cccnc2)cc1
viability, T/C (compound 0.0316 µM): 97.7% and 110% and 106% | viability, T/C (compound 0.1 µM): 123% and 118% and 108% | viability, T/C (compound 0.316 µM): 106% and 127% and 115% | viability, T/C (compound 1 µM): 98.9% and 105% and 80% | viability, T/C (compound 3.16 µM): 63.6% and 66.5% and 53.9% | viability, T/C (compound 10 µM): 31.6% and 32.4% and 21.6%

IC50 [1]: > 10 µM | IC50 [2]: > 10 µM | IC50 [3]: > 10 µM | IC50 [4]: > 10 µM | IC50 [5]: > 10 µM
SMILES: CC1(C)CCC(CN2CCN(c3ccc(C(=O)NS(=O)(=O)c4ccc(NCC5CCOCC5)c([N+](=O)[O-])c4)c(Oc4cnc5[nH]ccc5c4)c3)CC2)=C(c2ccc(Cl)cc2)C1 + Cc1ccccc1N=Nc1ccc(NC(=O)c2ccnn2C)c(C)c1
viability, T/C [6]: 114% | viability, T/C [7]: 140% | viability, T/C [8]: 96.5% | viability, T/C [9]: 102% | viability, T/C [10]: 104% | viability, T/C [11]: 103% | viability, T/C [12]: 110% | viability, T/C [13]: 99.9% | viability, T/C [14]: 116% | viability, T/C [15]: 108% | viability, T/C [16]: 107% | viability, T/C [17]: 96% | viability, T/C [18]: 120% | viability, T/C [19]: 144% | viability, T/C [20]: 133% | viability, T/C [21]: 116% | viability, T/C [22]: 98.8% | viability, T/C [23]: 94.5% | viability, T/C [24]: 135% | viability, T/C [25]: 155% | viability, T/C [26]: 165% | viability, T/C [27]: 119% | viability, T/C [28]: 130% | viability, T/C [29]: 84.6% | viability, T/C [30]: 166% | viability, T/C [31]: 162% | viability, T/C [32]: 158% | viability, T/C [33]: 151% | viability, T/C [34]: 108% | viability, T/C [35]: 72.6%

IC50 (compound alone, run of 06/14/2022): > 10 µM
SMILES: Cc1ccccc1N=Nc1ccc(NC(=O)c2ccnn2C)c(C)c1

IC50 [1]: > 10 µM | IC50 [2]: > 10 µM | IC50 [3]: > 10 µM | IC50 [4]: > 10 µM | IC50 [5]: > 10 µM
SMILES: CC(C)c1c(-c2ccccc2)nc2c(C#N)c[nH]n2c1=O + Cc1ccccc1N=Nc1ccc(NC(=O)c2ccnn2C)c(C)c1
viability, T/C [6]: 98.1% | viability, T/C [7]: 125% | viability, T/C [8]: 80.3% | viability, T/C [9]: 94.7% | viability, T/C [10]: 81.2% | viability, T/C [11]: 97.8% | viability, T/C [12]: 115% | viability, T/C [13]: 95.1% | viability, T/C [14]: 110% | viability, T/C [15]: 81.5% | viability, T/C [16]: 82% | viability, T/C [17]: 81.6% | viability, T/C [18]: 88.7% | viability, T/C [19]: 101% | viability, T/C [20]: 102% | viability, T/C [21]: 87.8% | viability, T/C [22]: 92.6% | viability, T/C [23]: 97.8% | viability, T/C [24]: 128% | viability, T/C [25]: 125% | viability, T/C [26]: 127% | viability, T/C [27]: 114% | viability, T/C [28]: 114% | viability, T/C [29]: 114% | viability, T/C [30]: 141% | viability, T/C [31]: 130% | viability, T/C [32]: 132% | viability, T/C [33]: 123% | viability, T/C [34]: 114% | viability, T/C [35]: 103%
